In the NIST ThermoML archive (doi:10.1016/j.jct.2004.12.008):

Experiment: xn = mol fraction of the nth substance listed
Settings: 101 kPa, Liquid

O=[N+]([O-])c1ccccc1 [nitrobenzene] + Cc1ccccc1C
Settings | mass density [kg/m3]
293.15 K, x2 = 0 | 1202.95
293.15 K, x2 = 0.0498 | 1184.47
293.15 K, x2 = 0.1289 | 1155.75
293.15 K, x2 = 0.1892 | 1134.33
293.15 K, x2 = 0.2532 | 1112.04
293.15 K, x2 = 0.3234 | 1088.07
293.15 K, x2 = 0.3891 | 1066.07
293.15 K, x2 = 0.4421 | 1048.61
293.15 K, x2 = 0.4923 | 1032.31
293.15 K, x2 = 0.5534 | 1012.76
293.15 K, x2 = 0.6132 | 993.93
293.15 K, x2 = 0.6734 | 975.26
293.15 K, x2 = 0.7321 | 957.32
293.15 K, x2 = 0.7931 | 938.95
293.15 K, x2 = 0.8523 | 921.38
293.15 K, x2 = 0.9323 | 898.02
303.15 K, x2 = 0 | 1193.56
303.15 K, x2 = 0.0535 | 1173.86
303.15 K, x2 = 0.1123 | 1152.62
303.15 K, x2 = 0.1782 | 1129.29
303.15 K, x2 = 0.2423 | 1107.06
303.15 K, x2 = 0.3139 | 1082.76
303.15 K, x2 = 0.3687 | 1064.49
303.15 K, x2 = 0.4348 | 1042.84
303.15 K, x2 = 0.5023 | 1021.14
303.15 K, x2 = 0.5681 | 1000.36
303.15 K, x2 = 0.6189 | 984.56
303.15 K, x2 = 0.6892 | 963.04
303.15 K, x2 = 0.7422 | 947.07
303.15 K, x2 = 0.8021 | 929.26
303.15 K, x2 = 0.8731 | 908.5
303.15 K, x2 = 0.9298 | 892.17
313.15 K, x2 = 0 | 1183.37
313.15 K, x2 = 0.0621 | 1160.16
313.15 K, x2 = 0.1298 | 1135.44
313.15 K, x2 = 0.1924 | 1113.1
313.15 K, x2 = 0.2499 | 1092.98
313.15 K, x2 = 0.3234 | 1067.82
313.15 K, x2 = 0.3891 | 1045.81
313.15 K, x2 = 0.4348 | 1030.76
313.15 K, x2 = 0.5109 | 1006.14
313.15 K, x2 = 0.5782 | 984.82
313.15 K, x2 = 0.6328 | 967.81
313.15 K, x2 = 0.6902 | 950.21
313.15 K, x2 = 0.7591 | 929.44
313.15 K, x2 = 0.8244 | 910.1
313.15 K, x2 = 0.8823 | 893.22
313.15 K, x2 = 0.9357 | 877.88
323.15 K, x2 = 0 | 1172.38
323.15 K, x2 = 0.0634 | 1147.74
323.15 K, x2 = 0.1244 | 1124.62
323.15 K, x2 = 0.1824 | 1103.12
323.15 K, x2 = 0.2311 | 1085.44
323.15 K, x2 = 0.2893 | 1064.7
323.15 K, x2 = 0.3214 | 1053.45
323.15 K, x2 = 0.3855 | 1031.35
323.15 K, x2 = 0.4345 | 1014.79
323.15 K, x2 = 0.4902 | 996.28
323.15 K, x2 = 0.5689 | 970.68
323.15 K, x2 = 0.6321 | 950.58
323.15 K, x2 = 0.7024 | 928.68
323.15 K, x2 = 0.7842 | 903.78
323.15 K, x2 = 0.8725 | 877.55
323.15 K, x2 = 0.9432 | 857.03
333.15 K, x2 = 0 | 1160.59
333.15 K, x2 = 0.0598 | 1135.86
333.15 K, x2 = 0.1132 | 1114.33
333.15 K, x2 = 0.1935 | 1082.9
333.15 K, x2 = 0.2491 | 1061.75
333.15 K, x2 = 0.3011 | 1042.41
333.15 K, x2 = 0.3672 | 1018.4
333.15 K, x2 = 0.4189 | 1000.06
333.15 K, x2 = 0.4783 | 979.42
333.15 K, x2 = 0.5389 | 958.84
333.15 K, x2 = 0.5901 | 941.8
333.15 K, x2 = 0.6598 | 919.09
333.15 K, x2 = 0.7243 | 898.58
333.15 K, x2 = 0.7929 | 877.26
333.15 K, x2 = 0.8687 | 854.25
333.15 K, x2 = 0.9244 | 837.72
343.15 K, x2 = 0 | 1148
343.15 K, x2 = 0.0587 | 1121.63
343.15 K, x2 = 0.1321 | 1089.78
343.15 K, x2 = 0.1849 | 1067.6
343.15 K, x2 = 0.2378 | 1045.95
343.15 K, x2 = 0.3012 | 1020.73
343.15 K, x2 = 0.3519 | 1001.09
343.15 K, x2 = 0.4242 | 973.86
343.15 K, x2 = 0.4981 | 946.94
343.15 K, x2 = 0.5533 | 927.38
343.15 K, x2 = 0.6232 | 903.27
343.15 K, x2 = 0.6623 | 890.09
343.15 K, x2 = 0.7429 | 863.56
343.15 K, x2 = 0.8122 | 841.44
343.15 K, x2 = 0.8823 | 819.66
343.15 K, x2 = 0.9422 | 801.51
353.15 K, x2 = 0 | 1134.61
353.15 K, x2 = 0.0623 | 1103.66
353.15 K, x2 = 0.1133 | 1079.21
353.15 K, x2 = 0.1892 | 1044.18
353.15 K, x2 = 0.2489 | 1017.71
353.15 K, x2 = 0.3129 | 990.32
353.15 K, x2 = 0.3798 | 962.71
353.15 K, x2 = 0.4124 | 949.61
353.15 K, x2 = 0.483 | 922.01
353.15 K, x2 = 0.5345 | 902.52
353.15 K, x2 = 0.6084 | 875.41
353.15 K, x2 = 0.6631 | 855.98
353.15 K, x2 = 0.7249 | 834.64
353.15 K, x2 = 0.7931 | 811.8
353.15 K, x2 = 0.852 | 792.66
353.15 K, x2 = 0.9123 | 773.59

O=[N+]([O-])c1ccccc1 [nitrobenzene] + CCc1ccccc1
Settings | mass density [kg/m3]
293.15 K, x2 = 0 | 1202.95
293.15 K, x2 = 0.0478 | 1184.56
293.15 K, x2 = 0.1275 | 1154.51
293.15 K, x2 = 0.1842 | 1133.58
293.15 K, x2 = 0.2576 | 1107.04
293.15 K, x2 = 0.3238 | 1083.6
293.15 K, x2 = 0.4023 | 1056.42
293.15 K, x2 = 0.4578 | 1037.57
293.15 K, x2 = 0.5139 | 1018.83
293.15 K, x2 = 0.5813 | 996.7
293.15 K, x2 = 0.6423 | 977.03
293.15 K, x2 = 0.6931 | 960.9
293.15 K, x2 = 0.7592 | 940.24
293.15 K, x2 = 0.8343 | 917.18
293.15 K, x2 = 0.8824 | 902.65
293.15 K, x2 = 0.9587 | 879.94
303.15 K, x2 = 0 | 1193.56
303.15 K, x2 = 0.054 | 1172.67
303.15 K, x2 = 0.1213 | 1147.16
303.15 K, x2 = 0.1983 | 1118.67
303.15 K, x2 = 0.2489 | 1100.34
303.15 K, x2 = 0.3138 | 1077.25
303.15 K, x2 = 0.3854 | 1052.32
303.15 K, x2 = 0.4428 | 1032.74
303.15 K, x2 = 0.5098 | 1010.3
303.15 K, x2 = 0.5721 | 989.85
303.15 K, x2 = 0.6219 | 973.76
303.15 K, x2 = 0.6839 | 954.06
303.15 K, x2 = 0.7429 | 935.62
303.15 K, x2 = 0.8013 | 917.67
303.15 K, x2 = 0.8632 | 898.94
303.15 K, x2 = 0.9328 | 878.24
313.15 K, x2 = 0 | 1183.37
313.15 K, x2 = 0.0538 | 1162.71
313.15 K, x2 = 0.1387 | 1130.89
313.15 K, x2 = 0.1932 | 1110.93
313.15 K, x2 = 0.2378 | 1094.87
313.15 K, x2 = 0.2947 | 1074.72
313.15 K, x2 = 0.3571 | 1053.04
313.15 K, x2 = 0.4139 | 1033.68
313.15 K, x2 = 0.4917 | 1007.73
313.15 K, x2 = 0.5523 | 987.93
313.15 K, x2 = 0.6139 | 968.18
313.15 K, x2 = 0.6731 | 949.53
313.15 K, x2 = 0.7248 | 933.5
313.15 K, x2 = 0.7932 | 912.63
313.15 K, x2 = 0.8536 | 894.54
313.15 K, x2 = 0.9248 | 873.58
323.15 K, x2 = 0 | 1172.38
323.15 K, x2 = 0.0617 | 1149.22
323.15 K, x2 = 0.1482 | 1117.58
323.15 K, x2 = 0.2213 | 1091.54
323.15 K, x2 = 0.2787 | 1071.53
323.15 K, x2 = 0.3234 | 1056.2
323.15 K, x2 = 0.3781 | 1037.74
323.15 K, x2 = 0.4344 | 1019.07
323.15 K, x2 = 0.4822 | 1003.47
323.15 K, x2 = 0.5339 | 986.86
323.15 K, x2 = 0.592 | 968.49
323.15 K, x2 = 0.6739 | 943.12
323.15 K, x2 = 0.7429 | 922.2
323.15 K, x2 = 0.8137 | 901.15
323.15 K, x2 = 0.8735 | 883.68
323.15 K, x2 = 0.9572 | 859.66
333.15 K, x2 = 0 | 1160.59
333.15 K, x2 = 0.0439 | 1144.65
333.15 K, x2 = 0.1249 | 1115.84
333.15 K, x2 = 0.1892 | 1093.51
333.15 K, x2 = 0.2599 | 1069.48
333.15 K, x2 = 0.3389 | 1043.25
333.15 K, x2 = 0.4042 | 1022.06
333.15 K, x2 = 0.4672 | 1002.01
333.15 K, x2 = 0.5243 | 984.15
333.15 K, x2 = 0.5902 | 963.91
333.15 K, x2 = 0.6645 | 941.54
333.15 K, x2 = 0.7309 | 921.93
333.15 K, x2 = 0.8021 | 901.28
333.15 K, x2 = 0.8623 | 884.12
333.15 K, x2 = 0.8932 | 875.4
333.15 K, x2 = 0.9621 | 856.21
343.15 K, x2 = 0 | 1148
343.15 K, x2 = 0.0535 | 1129.57
343.15 K, x2 = 0.1122 | 1109.7
343.15 K, x2 = 0.1834 | 1086.08
343.15 K, x2 = 0.2478 | 1065.16
343.15 K, x2 = 0.3044 | 1047.11
343.15 K, x2 = 0.3782 | 1024
343.15 K, x2 = 0.4519 | 1001.42
343.15 K, x2 = 0.513 | 983.04
343.15 K, x2 = 0.5801 | 963.22
343.15 K, x2 = 0.6529 | 942.11
343.15 K, x2 = 0.7238 | 921.93
343.15 K, x2 = 0.7932 | 902.5
343.15 K, x2 = 0.852 | 886.31
343.15 K, x2 = 0.8932 | 875.09
343.15 K, x2 = 0.9423 | 861.85
353.15 K, x2 = 0 | 1134.61
353.15 K, x2 = 0.0723 | 1111.4
353.15 K, x2 = 0.1298 | 1093.3
353.15 K, x2 = 0.1984 | 1072.07
353.15 K, x2 = 0.2584 | 1053.83
353.15 K, x2 = 0.3133 | 1037.4
353.15 K, x2 = 0.3891 | 1015.12
353.15 K, x2 = 0.4501 | 997.51
353.15 K, x2 = 0.524 | 976.53
353.15 K, x2 = 0.5818 | 960.38
353.15 K, x2 = 0.663 | 938.08
353.15 K, x2 = 0.7483 | 915.1
353.15 K, x2 = 0.7964 | 902.32
353.15 K, x2 = 0.8423 | 890.26
353.15 K, x2 = 0.8893 | 878.02
353.15 K, x2 = 0.9529 | 861.65
